Measurements taken from patent US20040127575A1, “Method for counteracting a pathologic change in the beta-adrenergic pathway” (priority 2002, published 2004).
Several values for one entry are separate records, joined by “and”; a condition that tells them apart may be missing. Equal entries are not always repeated. Entries after “also recorded” stand apart in the source; their conditions may differ. Each block holds one molecule with its values, some of them ahead of it.

Tests used:
[1] = system: rat neonatal cardiomyocytes; assay: cyclic AMP accumulation in rat neonatal cardiomyocytes (EIA); conditions: for attenuation of isoproterenol-stimulated cAMP accumulation: 1 μM isoproterenol, 200 nM antagonist; for β2AR response/AC activity (procaterol, forskolin): FIG. 11
Procedure: Ventricular cardiomyocytes were isolated from neonatal rat hearts as described before and seeded to fibronectin coated plates in DMEM21 and Coon's F12 with 10% FBS. […] Myocytes were used within 24 to 72 hr after isolation.
For pretreatment, cells were washed once in serum-free media (SFM) supplemented with 0.1% bovine serum albumin (BSA) and incubated with TGF-β1 in the presence or absence of inhibitors in the same media. Control cells were treated with the appropriate vehicles.
HBSMC or rat neonatal cardiomyocytes were subcultured in 96-well or 24-well plates for 24 hr to 48 hr, then treated with TGFβ1 (1-2ng/ml), Activin A (10-50 ng/ml) and other drugs in 1% serum-containing or serum-free media. After 24 hr incubation, phosphodiesterase inhibitor, IBMX (200 uM) was added to fresh media for 10-15 min before exposure to either 10 uM procaterol, 1 uM isoproterenol, or 10-50 uM forskolin for 10 min to stimulate cAMP production. The stimulation medium was removed and cells were lysed in 0.1M HCl. cAMP levels were measured using Direct cAMP EIA kit from Assay Designs, Inc. following manufacture's instruction.
Subsequent to treatment with TGF-β1 (1-2 ng/ml), cardiomyocytes (˜1×10^5 cells/well in 24-well plates) were incubated with phosphodiesterase inhibitor, IBMX (200 μM) for 30 min in SFM. Cells were then exposed to either procaterol (10 μM), forskolin (10-50 μM), or isoproterenol (Iso, 1 μM) for 10 min to allow for accumulation of cAMP. […] The incubations were terminated by removal of the medium. Cells in each well were lysed in 150 μl of 0.1 M HCl at room temperature (RT) for 30 min. Intracellular cAMP contents were measured using the Direct cAMP EIA kit following manufacture's instruction, and the cAMP levels were calculated in pmol/ml.

[2] = system: panel of related protein kinases; assay: panel of related protein kinases; conditions: relative to TGFβ-RI kinase
[3] = system: TGF-β mediated fibrosis; assay: TGF-β mediated fibrosis in in vitro and in vivo models; conditions: several in vitro and in vivo models
[4] = target: TGFβ-RII receptor (Homo sapiens, UniProt P37173); assay: specificity against TGFβ-RII receptor; conditions: relative to TGFβ-RI kinase
[5] = system: rat neonatal cardiomyocytes; assay: real-time RT-PCR of mRNA levels in cardiomyocytes; conditions: for β2-AR mRNA levels in cardiomyocytes: 24 hr pretreatment for TGF-β1
Text: Total RNA was extracted from cells using Qiagen's RNAeasy kit (Valencia, Calif.), and analyzed by quantitative real time RT-PCR [Gibson UEM, Heid C A and Williams P M. Genome Res. 6, 995-1001, 1996] using an ABI Prism™ 7700 Sequence Detection System (PE Applied Biosystems, Foster City, Calif.). This system is based on the ability of the 5′nuclease activity of Taq polymerase to cleave a nonextendable dual-labeled fluorogenic hybridization probe during the extension phase of PCR. The probe is labeled with reporter fluorescent dye at the 5′ end and a quencher fluorescent dye (6-carboxy-tetramethyl-rhodamine) at the 3′ end. When the probe is intact, reporter emission is quenched by the physical proximity of the reporter and quencher fluorescent dyes. However, during the extension phase of PCR, the nucleolytic activity of the DNA polymerase cleaves the hybridization probe and releases the reporter dye from the probe with a concomitant increase in reporter fluorescence.
Sequence specific primers and probes were designed using Primer Express software (PE Applied Biosystems, Foster City, Calif.). […] Primers were used at a concentration of 200 nM and probes at 100 nM in each reaction. Multiscribe reverse transcriptase and AmpliTaq Gold polymerase (PE Applied Biosystems, Foster City Calif.) were used in all RT-PCR reactions and PCR reactions. RT-PCR parameters were as follows: 48° C. for 30 min (reverse transcription), 95° C. for 10 min (AmpliTaq Gold activation) and 40 cycles of 95° C. for 15 sec, 60° C. for 1 min. Relative quantitation of β1-AR, β2-AR, and 18S mRNA were calculated using the comparative threshold cycle number for each sample fitted to a five point standard curve (ABI Prism 7700 User Bulletin #2, PE Applied Biosystems, Foster City Calif.). Expression levels were normalized to 18S rRNA.

[6] = system: Smad2/3 and Smad4; assay: immunofluorescence staining of Smad nuclear translocation in cardiomyocytes
Procedure: The nuclear translocation of Smad proteins in response to TGF-β1 was determined by immunofluorescence staining with monoclonal anti-Smad2/3 antibody (BD Transduction Labarotories) and anti-Smad4 antibody (sc-7966) (Santa Cruz Biotechnology). Briefly, myocytes cultured on Lab-Tek chamber slides (Nalge Nunc International, Naperville, Ill.) coated with fibronectin and gelatin were fixed with 4% paraformaldehyde in PBS for 5 min, then penetrated with 0.1% saponin/1% normal goat serum (NGS) in PBS for 15 min. After blocking nonspecific binding with 5% NGS/0.05% saponin in PBS for 15 min, the slides were incubated with primary antibody in 1% NGS in PBS at 4° C. overnight. After another washing and blocking, slides were incubated with a biotinylated anti-mouse antibody for 30 min, followed by fluorescein isothiocyanate (FITC)-conjugated-avidin (Vector, Burlingame, Calif.) for 30 min. Slides were dried and mounted in Vectashield (Vector). Samples were analyzed by fluorescence microscopy.

[7] = system: human bronchial smooth muscle cells (hBSMC); assay: cyclic AMP accumulation in hBSMC (EIA); assay type: cell-based
Procedure: Human bronchial smooth muscle cells (hBSMC) were purchased from Clonetics (BioWhittaker, Inc., Walkersville, Md.), and maintained in SmGM-2 containing 5% fetal bovine serum (Clonetics) at 37° C./5% CO2. All experiments were performed on cells at passages from 6 to 8. For pretreatment, cells were incubated in 1% serum-containing media or serum-free media in the presence or absence of TGFβ1, Activin A and other drugs. Control cells were treated with the appropriate vehicles.

[8] = system: Smad2; assay: Western blot of Smad2 phosphorylation in cardiomyocytes
Procedure: (§1) After incubation with TGFβ1 and other drugs, cells were washed once with 1×PBS and lysed in 0.2 ml/plate cold RIPA buffer (phosphate buffered saline, pH 7.4, 1% NP-40, 0.5% sodium deoxycholate, 0.1% sodium dodecylsulfate, 1 mM sodium orthovanadate, 1 mM NaF, 1 mM β-glycerolphosphate, 1 uM okadaic acid, 10 ng/ml aprotinin, 10 ng/ml leupeptin, 1 mM phenymethylsulfonyl fluoride). Samples were clarified by centrifugation (4° C., 10 min, 15,000×g), and protein concentration was determined by BCA method (PIRCE). Lysates with equal amounts of total cell protein (15-20 ug) were separated on 10% SDS-NuPAGE (Invitrogen) and then transferred to nitrocellulose membrane. The membrane was blocked in 3% nonfat dry milk/TBST (10 mM Tris-HCl pH 7.5, 150 mM NaCl, 0.1% Tween 20) for 1 hr, and probed with anti-Smad2/3 mouse monoclonal antibody [Transduction Laboratories (S66220); 1:500 dilution in 3% milk/TBST], or anti-phospho-Smad2 (Ser465/467) rabbit antiserum [Cell Signaling (3101S); 1:500 dilution in 3% BSA/TBST] at 4° C. overnight. Donkey anti-mouse HRP [Santa Cruz (SC-2314); 1:2000 dilution] or donkey anti-rabbit HRP [Santa Cruz (SC-23130; 1:2000 dilution] were used as secondary antibody. Immunoreactivity was detected with chemiluminescence reagent (Santa Cruz) and visualized by exposing to x-ray film (Kodak).
The binding of primary antibodies was followed by incubation for 1 hour at RT with the secondary horseradish peroxidase (HRP) conjugated goat anti-mouse or goat anti-rabbit antibody (Santa Cruz Biotechnology). Immunoreactivity was detected with chemiluminescence reagents and visualized by exposing to x-ray film (Kodak).

[9] = system: Smad2, Smad3; assay: Western blot of phospho-Smad2 and Smad3 in hBSMC; assay type: cell-based, human
Procedure: as §1

[10] = system: β2-adrenergic receptors on cell surface; assay: radioligand binding with [3H]CGP-12177 on intact hBSMC; assay type: cell-based, human; conditions: TGFβ1 exposure
Procedure: The number of β2-adrenergic receptors on cell surface was determined by radioligand binding using hydrophilic, membrane-impermeable β-adrenergic antagonist [^3H]CGP-12177. Intact hBSMCs in 10 cm dish were preincubated with 5 nM [^3H]-CGP 12177 in the presence or absence of 20 uM propranolol (to define the amount of nonspecific binding) in SmBM for 1 hour at 37° C. with very gentle shaking. Cells were washed 3 times with ice-cold 1×PBS containing 0.1% Tween-20 (binding buffer) and 3 more times with ice-cold 1×PBS. 400 μl of RIPA buffer containing protease inhibitors was added to the plates and cells were scraped off the plates. Cell lysates were collected and protein concentrations were determined by BCA method (PIERCE). The radioligand bound to the whole cell was quantified by liquid scintillation counter and normalized to the protein concentration.

[11] = system: β2AR mRNA; assay: real-time quantitative PCR of β2AR mRNA in hBSMC; assay type: cell-based, human; conditions: TGFβ1 exposure
Text: Expression levels were normalized to 18S rRNA.

[12] = system: β2-AR receptor binding sites; assay: radioligand binding in cardiomyocytes; assay type: cell-based, rat
Procedure: The radioligand binding assay was performed as described in Example 1. To define the nonspecific binding to β2-AR, 50 nM CGP-20712A were used.
Membranes were then prepared and binding of 100 pm [^125]-CYP was measured for 2 hours at 23° C. using 8 μg membrane protein, and expressed as fmol/mg protein. Binding in the presence of 100 nM CGP-20712A was defined as binding to β2-AR, while binding in the presence of 100 μM propranolol was defined as non-specific binding. Subtraction of β2-AR binding from total binding was defined as β1-AR binding. The results are shown in FIG. 25 (p<0.05 vs. vehicle).

Sequence of TGFβ-RII receptor (P37173 23-567): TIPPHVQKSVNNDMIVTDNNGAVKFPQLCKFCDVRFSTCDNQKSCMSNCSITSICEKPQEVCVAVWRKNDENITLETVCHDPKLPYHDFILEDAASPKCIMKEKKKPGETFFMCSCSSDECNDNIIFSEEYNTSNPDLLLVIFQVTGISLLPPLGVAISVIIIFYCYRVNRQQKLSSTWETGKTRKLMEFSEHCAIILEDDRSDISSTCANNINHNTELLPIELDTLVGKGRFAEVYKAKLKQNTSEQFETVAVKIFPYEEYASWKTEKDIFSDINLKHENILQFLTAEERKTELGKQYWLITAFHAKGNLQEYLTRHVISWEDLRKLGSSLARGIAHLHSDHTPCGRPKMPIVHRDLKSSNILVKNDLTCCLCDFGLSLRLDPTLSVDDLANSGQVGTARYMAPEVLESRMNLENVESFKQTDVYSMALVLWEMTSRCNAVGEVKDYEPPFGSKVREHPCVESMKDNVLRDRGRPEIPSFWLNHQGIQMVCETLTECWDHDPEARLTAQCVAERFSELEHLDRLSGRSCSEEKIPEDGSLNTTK

Molecule: Cn1cc(C(F)(F)F)nc1-c1ccc(OCC(O)CNCCOc2ccc(O)c(C(N)=O)c2)cc1 (centres unmarked) [CGP-20712A, reference compound]
- attenuation of isoproterenol-stimulated cAMP accumulation [1]: ~75%

Molecule: Fc1ccc(Cl)cc1-c1nc(Nc2ccncc2)c2nccnc2n1 [Compound No. 79]
- specificity over members of a panel of related protein kinases [2]: at least 20 fold
- effect on TGF-β mediated fibrosis [3]: able to block
- effect on TGFβ1-induced loss of β2AR response and AC activity ([1]; Example 1, FIG. 9): prevents
- basal cAMP levels in cardiomyocytes ([1]; higher concentration): increased
- isoproterenol or forskolin induced cAMP accumulation in TGF-β1 treated cardiomyocytes ([1]; pre-incubation, Compound No. 79 200 nM): preserved
- specificity against TGFβ-RII receptor [4]: > 100 fold
- effect on TGF-β1 induced down-regulation of β2-AR mRNA ([5]; 5 ng/ml TGF-β1, 24 hr, dose-dependent): reversed
- effect on activin-induced down-regulation of β2AR mRNA ([5]; FIG. 10): prevented
- effect on decreased AC5 and AC6 mRNA levels in TGF-β1 treated cardiomyocytes ([5]; dose-dependent): inhibited
- effect on TGF-β1 induced down-regulation of Smad3 mRNA ([5]; dose-dependent, within 24 hr): blocked
- mRNA levels of β2-AR in TGFβ1 treated cells ([5]; high doses (400-1000 nM)): higher than that in control cells
- effect on TGF-β1 induced Smad2/3 and Smad4 translocation into the nucleus ([6]; 400 nM): completely abolished
- effect on TGFβ1-induced loss of adrenergic responsiveness in hBSMC ([7]; FIG. 4): prevents
- effect on TGF-β1 induced Smad2 phosphorylation/activation ([8]; pre-incubation, Compound No. 79 at 400 nM, 1 hr and 24 hr): significantly blocked
- basal phosphorylation of Smad2 ([8]; resting cardiomyocytes): blocked
- effect on TGFβ1-induced Smad2 phosphorylation and Smad3 down-regulation in hBSMC ([9]; FIG. 13): blocks

Molecule: Cc1ccc(OCC(O)C(C)NC(C)C)c2c1CCC2 (centres unmarked) [ICI 118, 551, reference compound]
- attenuation of isoproterenol-stimulated cAMP accumulation [1]: ~25%

Molecule: N#CC(=C(/N)Sc1ccccc1N)/C(C#N)=C(\N)Sc1ccccc1N [U0126, reference compound]
- β2-AR mediated (procaterol stimulated) cAMP accumulation after 24 hr TGF-β1 exposure, compared to vehicle ([1]; Compound No. 79 200 nM, p38 inhibitor 0.5 μM, U-0126 5 μM, JNK inhibitor I 5 μM, TGF-β1 1 ng/ml): No significant effects; also recorded: did not affect

Molecule: CCC(NC(C)C)C(O)c1ccc(O)c2[nH]c(=O)ccc12 (centres unmarked) [procaterol, reference compound]
- cAMP accumulation by agonist ([1]; 10 μM procaterol): substantially increased

- β2-AR receptor binding sites in cardiomyocytes [12]: trend to decrease
Molecule: TGF-β1: Human recombinant transforming growth factor-β1 from R&D System
- reduction in procaterol-stimulated cAMP accumulation ([1]; TGF-β1 1 ng/ml pre-treatment 24 hr, 10 μM procaterol, maximal effect): 59±5.2% and ~60%
- cAMP accumulation stimulated by forskolin ([1]; TGF-β1 exposure, 25 μM forskolin): decreased
- decrease of cAMP accumulation when β2-ARs selectively stimulated by isoproterenol in the presence of CGP-20712A ([1]; TGF-β1 pretreatment 24 hr): ~65%
- reduction in β1-AR mediated cAMP accumulation (isoproterenol in the presence of ICI 118, 551) ([1]; TGF-β1 pretreatment 24 hr): 16.5±3.1%
- βAR binding sites on hBSMC [10]: reduces
- Smad7 mRNA in cardiomyocytes [5]: up-regulated
- β1-AR mRNA levels in cardiomyocytes [5]: did not significantly alter
- β2-AR mRNA levels in cardiomyocytes [5]: decreased β2-AR mRNA levels dramatically
- earliest time of suppression of β2-AR mRNA ([5]; after treatment): 1 h
- expression of βARK1, Gsα, Giα-1, Giα-3 ([5]; message or protein levels): did not alter
- mRNA levels of AC5 and AC6 ([5]; time-dependent): significant reduction
- Smad3 mRNA in cardiomyocytes ([5]; within 24 hr): down-regulated
- Smad2/3 and Smad4 fluorescence staining in the nucleus ([6]; stimulation for 1 hr): dramatically increased
- time course of loss of β2AR response (procaterol-induced cAMP) in hBSMC ([7]; more profound at 24 hr or later): after 12 hr
- time course of effect on AC activity (forskolin-induced cAMP) in hBSMC ([7]; to a lesser extent): only observed 24 hr later
- time of peak serine phosphorylation of Smad2 ([8]; maintained for 24 hr): 1 h
- β2AR mRNA in hBSMC [11]: significantly reduces
- Smad2 phosphorylation in hBSMC [9]: induces
- Smad3 expression in hBSMC [9]: down-regulated

B1: IL-1β: IL-1β, cytokine applied to rat cardiomyocytes (protein, UniProt Q63264 117-268, looked up)
Interleukin-1 beta: VPIRQLHCRLRDEQQKCLVLSDPCELKALHLNGQNISQQVVFSMSFVQGETSNDKIPVALGLKGLNLYLSCVMKDGTPTLQLESVDPKQYPKKKMEKRFVFNKIEVKTKVEFESAQFPNWYISTSQAEHRPVFLGNSNGRDIVDFTMEPVSS
- β2AR response/AC activity (procaterol, forskolin) [1]: induces loss

B2: activin A: Activin A obtained from R&D System (protein, UniProt P08476 311-426, looked up)
Inhibin beta A chain: GLECDGKVNICCKKQFFVSFKDIGWNDWIIAPSGYHANYCEGECPSHIAGTSGSSLSFHSTVINHYRMRGHSPFANLKSCCVPTKLRPMSMLYYDDGQNIIKKDIQNMIVEECGCS
- β2AR response/AC activity (procaterol, forskolin) [1]: induces loss
- β2-AR mRNA levels in cardiomyocytes [5]: down-regulated
- βAR response and AC activity in hBSMC ([7]; higher concentration): causes loss of βAR response as well as reduced AC activity
